Activity calls are given as the source filed them. The rule behind the calls is not given here.
Legend:
Cricetinae gen. sp. [1] = experiment: Ability to reduce liver cholesterol ester (L/CE) levels in the cholesterol fed hamster model at a dose of 50 mg/k; format: functional, Cricetulus griseus
Cricetinae gen. sp. [2] = experiment: Tested for ability to reduce liver cholesterol ester (L/CE) levels in the cholesterol fed hamster model at a dose of 10 mg/kg; format: functional, Cricetulus griseus
Cricetinae gen. sp. [3] = experiment: Tested for ability to reduce liver cholesterol ester (L/CE) levels in the cholesterol fed hamster model at a dose of 50 mg/kg; NE: No effect; format: functional, organism-based; parameters: dose 50 mg/kg; settings: Cricetulus griseus

Row | Compound | L/CE (Cricetinae gen. sp. [1]) [%] | other results
1 | COc1ccc([C@@H]2[C@H](CCc3ccccc3)CC(=O)N2c2ccc(OC)cc2)cc1 | 16 | 
2 | COc1ccc([C@@H]2[C@@H](CCc3ccccc3)CC(=O)N2c2ccc(OC)cc2)cc1 | 24 | 
3 | COc1ccc([C@@H]2[C@H](c3ccc4ccccc4c3)CC(=O)N2c2ccc(OC)cc2)cc1 | 21 | 
4 | COc1ccc([C@@H]2[C@@H](CCCc3ccccc3)S(=O)(=O)N2c2ccccc2)cc1 | 51 | 
5 | COc1ccc([C@@H]2[C@H](CCCc3ccccc3)C(=O)N2c2ccc(OC)cc2)cc1 |  | L/CE (Cricetinae gen. sp. [2]): 69%
6 | COc1ccc([C@@H]2[C@H](CCCc3ccccc3)CC(=O)N2c2ccc(OC)cc2)cc1 | 43 | 
7 | COc1ccc([C@@H]2C[C@@H](CCCc3ccccc3)C(=O)N2c2ccc(OC)cc2)cc1 |  | L/CE (Cricetinae gen. sp. [3]): inactive
8 | COc1ccc([C@@H]2[C@@H](CCCc3ccccc3)C(=O)N2c2ccc(OC)cc2)cc1 [SCH-48461] | 78 | L/CE (Cricetinae gen. sp. [2]): 93%
9 | COc1ccc([C@H]2CN(c3ccc(OC)cc3)C(=O)[C@@H]2CCCc2ccccc2)cc1 |  | L/CE (Cricetinae gen. sp. [3]): inactive
10 | COc1ccc([C@@H]2[C@@H](CCCCc3ccccc3)CC(=O)N2c2ccc(OC)cc2)cc1 | 52 | 
11 | COc1ccc([C@@H]2[C@H](CCCc3ccccc3)S(=O)(=O)N2c2ccccc2)cc1 | 43 | 
12 | COc1ccc([C@@H]2[C@@H](CCc3ccccc3)NC(=O)N2c2ccccc2)cc1 | 34 | 
13 | COc1ccc([C@H]2C[C@@H](CCCCc3ccccc3)C(=O)N2c2ccccc2)cc1 |  | L/CE (Cricetinae gen. sp. [3]): inactive
14 | COc1ccc([C@@H]2[C@@H](CCCc3ccccc3)OC(=O)N2c2ccccc2)cc1 | 47 | 
15 | COc1ccc([C@@H]2[C@H](CCCc3ccccc3)C(=O)N2c2ccc(OC)cc2)cc1 (racemic) | 95 | 
16 | COc1ccc([C@@H]2[C@@H](CCCc3ccccc3)CC(=O)N2c2ccc(OC)cc2)cc1 | 12 | 
17 | COc1ccc([C@@H]2C[C@@H](CCCCc3ccccc3)C(=O)N2c2ccccc2)cc1 |  | L/CE (Cricetinae gen. sp. [3]): inactive
18 | COc1ccc([C@@H]2[C@@H](c3ccc4ccccc4c3)CC(=O)N2c2ccc(OC)cc2)cc1 | 28 | 
19 | COc1ccc([C@@H]2[C@H](CCCCc3ccccc3)CC(=O)N2c2ccc(OC)cc2)cc1 | 30 | 
20 | COc1ccc([C@@H]2[C@H](CCc3ccccc3)OC(=O)N2c2ccccc2)cc1 | 21 | 
21 | COc1ccc([C@@H]2[C@@H](CCc3ccccc3)OC(=O)N2c2ccccc2)cc1 | 34 | 
22 | COc1ccc([C@@H]2[C@@H](CCCc3ccccc3)C(=S)N2c2ccc(OC)cc2)cc1 | 23 | 
